Data published in paper PMC5529658, “Antiproliferative and Antibacterial Activities of Cirsium scabrum from Tunisia” (Evidence-based Complementary and Alternative Medicine : eCAM, 2017).

Columns and labels:
[1] = test system: WI38 (human normal fibroblast-like lung cell line); assay: MTT cytotoxicity assay on WI38; format: cell-based; conditions: WI-38, 72 h, mean ± SEM, six determinations
Experimental: (§1) Cell Culture. The cytotoxicity was evaluated on two cell lines: J774 (macrophage-like cell line, derived from BALB/c murine reticulum cell sarcoma) and WI38 (human normal fibroblast-like lung cell line), using the tetrazolium salt MTT [3-(4,5-dimethylthiazol-2-yl)-2,5-diphenyltetrazolium bromide (Sigma)] colorimetric method, as described by Bero et al.. J774 cells were cultivated in a humidified atmosphere with 5% CO2 at 37°C in RPMI 1640 medium (Life Technologies, Paisley, UK) containing 2 mM L-glutamine supplemented with 10% heat-inactivated fetal bovine serum (Life Technologies) and penicillin-streptomycin (100 UI/ml). WI38 cells were cultivated in a humidified atmosphere with 5% CO2 at 37°C in DMEM medium (Life Technologies) containing 4 mM L-glutamine, 1 mM sodium pyruvate supplemented with 10% heat-inactivated fetal bovine serum (Life Technologies), and penicillin-streptomycin (100 UI/ml).
Cytotoxicity Assay. Briefly, WI38 or J774 cells were seeded in 96-well plates (5000 cells/well/180 µl medium or 2.8 × 10^4 cells/ml). After 24 h, cells were treated with 20 μl of crude extract and partitions solutions in a fixed concentration of 50 µg/ml to calculate cell viability percentage. […] Absorbance was recorded at 570 nm and 620 nm. […]
(§2) Cell viability% = [AT/ANT] × 100, with A: absorbance, NT: control cells, and T: treated cells.

[2] = test system: J774 (macrophage-like cell line, derived from BALB/c murine reticulum cell sarcoma); assay: MTT cytotoxicity assay on J774; format: cell-based; conditions: for SI (IC50 WI38/IC50 J774): selectivity index WI38 vs J774
Experimental: as §1
Cytotoxicity Assay. Briefly, WI38 or J774 cells were seeded in 96-well plates (5000 cells/well/180 µl medium or 2.8 × 10^4 cells/ml). After 24 h, cells were treated with 20 μl of crude extract and partitions solutions in a fixed concentration of 50 µg/ml to calculate cell viability percentage. […] After 72 h, the medium was replaced by 100 μl of a 10% MTT solution (3 mg/ml in PBS) in medium. After 45 min, the medium was removed again and 100 μl of DMSO was added to solubilize formed formazan crystals. Absorbance was recorded at 570 nm and 620 nm. Each sample was tested in eight serial […] dilutions in 96-well microtiter plates, at least three wells per concentration in duplicate. Camptothecin (Sigma) was used as positive control (concentration range: 25–0.00032 µg/ml).
as §2

[3] = test system: Corynebacterium striatum T46C1; assay: Antimicrobial assay (MIC, agar dilution); format: cell-based; conditions: vancomycin
Experimental: (§3) The antimicrobial activity of crude extract and partitions was evaluated against 36 pathogenic microorganisms (22 Gram-positive bacteria, 13 Gram-negative bacteria, and 1 yeast) according to Mahamodo et al.. The 36 microorganisms were grown overnight at 37°C on sloping Mueller-Hinton (MH) agar medium. Briefly, the bacteria were diluted with Ringer's Cysteine (RC) solution to obtain 10^6 bacteria/ml. […] Inocula of 10^4 colony forming units (CFU) were spotted ultimately with a multipoint inoculator (Steers Replicator).

[4] = test system: Enterococcus faecalis T37B1; assay: Antimicrobial assay (MIC, agar dilution); format: cell-based; conditions: vancomycin
Experimental: as §3

[5] = test system: Pseudomonas aeruginosa T41; assay: Antimicrobial assay (MIC, agar dilution); format: cell-based; conditions: vancomycin
Experimental: as §3

[6] = test system: Staphylococcus aureus T26A4; assay: Antimicrobial assay (MIC, agar dilution); format: cell-based; conditions: vancomycin
Experimental: as §3

[7] = test system: Staphylococcus lugdunensis T47B2; assay: Antimicrobial assay (MIC, agar dilution); format: cell-based; conditions: vancomycin
Experimental: as §3

[8] = test system: Staphylococcus lugdunensis T36A1; assay: Antimicrobial assay (MIC, agar dilution); format: cell-based; conditions: vancomycin
Experimental: as §3

[9] = test system: Streptococcus agalactiae T53A4; assay: Antimicrobial assay (MIC, agar dilution); format: cell-based; conditions: vancomycin
Experimental: as §3

[10] = test system: Staphylococcus aureus T2510; assay: Antimicrobial assay (MIC, agar dilution); format: cell-based; conditions: vancomycin
Experimental: as §3

[11] = test system: Staphylococcus epidermidis T19A1; assay: Antimicrobial assay (MIC, agar dilution); format: cell-based; conditions: vancomycin
Experimental: as §3

[12] = test system: Staphylococcus aureus T281; assay: Antimicrobial assay (MIC, agar dilution); format: cell-based; conditions: vancomycin
Experimental: as §3

[13] = test system: Dermabacter hominis T49B5; assay: Antimicrobial assay (MIC, agar dilution); format: cell-based; conditions: vancomycin
Experimental: as §3

[14] = test system: Enterococcus faecalis T47A16; assay: Antimicrobial assay (MIC, agar dilution); format: cell-based; conditions: vancomycin
Experimental: as §3

[15] = test system: Pseudomonas aeruginosa ATCC9027; assay: Antimicrobial assay (MIC, agar dilution); format: cell-based; conditions: vancomycin
Experimental: as §3

[16] = test system: Staphylococcus aureus T21; assay: Antimicrobial assay (MIC, agar dilution); format: cell-based; conditions: vancomycin
Experimental: as §3

[17] = test system: Staphylococcus epidermidis T151; assay: Antimicrobial assay (MIC, agar dilution); format: cell-based; conditions: vancomycin
Experimental: as §3

[18] = test system: Staphylococcus aureus T306; assay: Antimicrobial assay (MIC, agar dilution); format: cell-based; conditions: vancomycin
Experimental: as §3

[19] = test system: Staphylococcus aureus 8148; assay: Antimicrobial assay (MIC, agar dilution); format: cell-based; conditions: vancomycin
Experimental: as §3

[20] = test system: Corynebacterium striatum T40A3; assay: Antimicrobial assay (MIC, agar dilution); format: cell-based; conditions: vancomycin
Experimental: as §3

[21] = test system: Escherichia coli T20A2; assay: Antimicrobial assay (MIC, agar dilution); format: cell-based; conditions: vancomycin
Experimental: as §3

[22] = test system: Staphylococcus aureus 8143; assay: Antimicrobial assay (MIC, agar dilution); format: cell-based; conditions: vancomycin
Experimental: as §3

[23] = test system: Staphylococcus pettenkoferi T282; assay: Antimicrobial assay (MIC, agar dilution); format: cell-based; conditions: vancomycin
Experimental: as §3

[24] = test system: Staphylococcus aureus T11; assay: Antimicrobial assay (MIC, agar dilution); format: cell-based; conditions: vancomycin
Experimental: as §3

[25] = test system: Staphylococcus aureus 8142; assay: Antimicrobial assay (MIC, agar dilution); format: cell-based; conditions: vancomycin
Experimental: as §3

[26] = test system: Staphylococcus pettenkoferi T33; assay: Antimicrobial assay (MIC, agar dilution); format: cell-based; conditions: vancomycin
Experimental: as §3

[27] = test system: Staphylococcus capitis T29A2; assay: Antimicrobial assay (MIC, agar dilution); format: cell-based; conditions: vancomycin
Experimental: as §3

[28] = test system: Staphylococcus aureus T61; assay: Antimicrobial assay (MIC, agar dilution); format: cell-based; conditions: vancomycin
Experimental: as §3

[29] = test system: Staphylococcus capitis T21A3; assay: Antimicrobial assay (MIC, agar dilution); format: cell-based; conditions: vancomycin
Experimental: as §3

[30] = test system: Staphylococcus saprophyticus 8237; assay: Antimicrobial assay (MIC, agar dilution); format: cell-based; conditions: vancomycin
Experimental: as §3

[31] = test system: Dermabacter hominis T47A7; assay: Antimicrobial assay (MIC, agar dilution); format: cell-based; conditions: vancomycin
Experimental: as §3

[32] = test system: several cultured human cancer cell lines; conditions: cited from earlier work

C=C(C)[C@@H]1CC[C@]2(C)CC[C@]3(C)[C@H](CC[C@@H]4[C@@]5(C)CC[C@H](O)C(C)(C)[C@@H]5CC[C@]43C)[C@@H]12 [Compound 1, lupeol]
IC50 [1]: 19.2 ± 0.55 µg/mL
IC50 ([2]; Mus musculus, J774, MTT, 72 h, mean ± SEM, six determinations): 12.6 ± 0.23 µg/mL
SI (IC50 WI38/IC50 J774) [2]: 1.5^∗∗∗
SI (IC50 WI38/IC50 J774) ([2]; listed as Lupeol): 1.5

CN[C@H](CC(C)C)C(=O)N[C@H]1C(=O)N[C@@H](CC(N)=O)C(=O)N[C@H]2C(=O)N[C@H]3C(=O)N[C@H](C(=O)N[C@H](C(=O)O)c4cc(O)cc(O)c4-c4cc3ccc4O)[C@H](O)c3ccc(c(Cl)c3)Oc3cc2cc(c3O[C@@H]2O[C@H](CO)[C@@H](O)[C@H](O)[C@H]2O[C@H]2C[C@](C)(N)[C@H](O)[C@H](C)O2)Oc2ccc(cc2Cl)[C@H]1O [Vanc, vancomycin]
Reference antibiotics MIC values [3]: S (Vanc (vancomycin), S: ≤4)
Reference antibiotics MIC values [4]: S (Vanc (vancomycin), S: ≤4)
Reference antibiotics MIC values [5]: R (R: >16)
Reference antibiotics MIC values [6]: S (Vanc (vancomycin), S: ≤4)
Reference antibiotics MIC values [7]: S (Vanc (vancomycin), S: ≤4)
Reference antibiotics MIC values [8]: S (Vanc (vancomycin), S: ≤4)
Reference antibiotics MIC values [9]: R (R: >16)
Reference antibiotics MIC values [10]: S (Vanc (vancomycin), S: ≤4)
Reference antibiotics MIC values [11]: R (R: >16)
Reference antibiotics MIC values [12]: S (Vanc (vancomycin), S: ≤4)
Reference antibiotics MIC values [13]: S (Vanc (vancomycin), S: ≤4)
Reference antibiotics MIC values [14]: S (Vanc (vancomycin), S: ≤4)
Reference antibiotics MIC values [15]: R (R: >16)
Reference antibiotics MIC values [16]: S (Vanc (vancomycin), S: ≤4)
Reference antibiotics MIC values [17]: S (Vanc (vancomycin), S: ≤4)
Reference antibiotics MIC values [18]: S (Vanc (vancomycin), S: ≤4)
Reference antibiotics MIC values [19]: S (Vanc (vancomycin), S: ≤4)
Reference antibiotics MIC values [20]: S (Vanc (vancomycin), S: ≤4)
Reference antibiotics MIC values [21]: R (R: >16)
Reference antibiotics MIC values [22]: S (Vanc (vancomycin), S: ≤4)
Reference antibiotics MIC values [23]: S (Vanc (vancomycin), S: ≤4)
Reference antibiotics MIC values [24]: S (Vanc (vancomycin), S: ≤4)
Reference antibiotics MIC values [25]: S (Vanc (vancomycin), S: ≤4)
Reference antibiotics MIC values [26]: S (Vanc (vancomycin), S: ≤4)
Reference antibiotics MIC values [27]: S (Vanc (vancomycin), S: ≤4)
Reference antibiotics MIC values [28]: S (Vanc (vancomycin), S: ≤4)
Reference antibiotics MIC values [29]: S (Vanc (vancomycin), S: ≤4)
Reference antibiotics MIC values [30]: S (Vanc (vancomycin), S: ≤4)
Reference antibiotics MIC values [31]: S (Vanc (vancomycin), S: ≤4)

C[C@H](C/C=C/C(C)(C)OO)[C@H]1CC[C@@]2(C)[C@@H]3CC[C@H]4C(C)(C)[C@@H](O)CC[C@@]45C[C@@]35CC[C@]12C [Compound 3a, 25-hydroperoxycycloart-23-en-3β-ol]
cytotoxic activity [32]: significant cytotoxic activity
